For assay [1], the target named is EGFRWT (Homo sapiens, UniProt P00533). Description: In vitro enzymatic activity assay (Z'-LYTE), wild type EGFR. It counts as biochemical. The following applies: Z'-LYTE FRET peptide assay; read-out: EGFRWT kinase activity (IC50). The text has this: (§1) In vitro enzymatic activity assay: using Z′-LYTE™ technology (detect fluorescence, coupled-enzyme format, based on the differential sensitivity of phosphorylated and non-phosphorylated peptides to proteolytic cleavage), based on FRET, using Z′ LYTE™ FRET peptide substrate, detect the activity of compounds against enzymatic. […] After one hour, site specific protease which can recognize and cleaves non-phosphorylated FRET-peptide. After another hour, using an excitation wavelength of 400 nm excites, then detect the […] at 445 nm and 520 nm.
EGFRWT, sequence (P00533 25-1210): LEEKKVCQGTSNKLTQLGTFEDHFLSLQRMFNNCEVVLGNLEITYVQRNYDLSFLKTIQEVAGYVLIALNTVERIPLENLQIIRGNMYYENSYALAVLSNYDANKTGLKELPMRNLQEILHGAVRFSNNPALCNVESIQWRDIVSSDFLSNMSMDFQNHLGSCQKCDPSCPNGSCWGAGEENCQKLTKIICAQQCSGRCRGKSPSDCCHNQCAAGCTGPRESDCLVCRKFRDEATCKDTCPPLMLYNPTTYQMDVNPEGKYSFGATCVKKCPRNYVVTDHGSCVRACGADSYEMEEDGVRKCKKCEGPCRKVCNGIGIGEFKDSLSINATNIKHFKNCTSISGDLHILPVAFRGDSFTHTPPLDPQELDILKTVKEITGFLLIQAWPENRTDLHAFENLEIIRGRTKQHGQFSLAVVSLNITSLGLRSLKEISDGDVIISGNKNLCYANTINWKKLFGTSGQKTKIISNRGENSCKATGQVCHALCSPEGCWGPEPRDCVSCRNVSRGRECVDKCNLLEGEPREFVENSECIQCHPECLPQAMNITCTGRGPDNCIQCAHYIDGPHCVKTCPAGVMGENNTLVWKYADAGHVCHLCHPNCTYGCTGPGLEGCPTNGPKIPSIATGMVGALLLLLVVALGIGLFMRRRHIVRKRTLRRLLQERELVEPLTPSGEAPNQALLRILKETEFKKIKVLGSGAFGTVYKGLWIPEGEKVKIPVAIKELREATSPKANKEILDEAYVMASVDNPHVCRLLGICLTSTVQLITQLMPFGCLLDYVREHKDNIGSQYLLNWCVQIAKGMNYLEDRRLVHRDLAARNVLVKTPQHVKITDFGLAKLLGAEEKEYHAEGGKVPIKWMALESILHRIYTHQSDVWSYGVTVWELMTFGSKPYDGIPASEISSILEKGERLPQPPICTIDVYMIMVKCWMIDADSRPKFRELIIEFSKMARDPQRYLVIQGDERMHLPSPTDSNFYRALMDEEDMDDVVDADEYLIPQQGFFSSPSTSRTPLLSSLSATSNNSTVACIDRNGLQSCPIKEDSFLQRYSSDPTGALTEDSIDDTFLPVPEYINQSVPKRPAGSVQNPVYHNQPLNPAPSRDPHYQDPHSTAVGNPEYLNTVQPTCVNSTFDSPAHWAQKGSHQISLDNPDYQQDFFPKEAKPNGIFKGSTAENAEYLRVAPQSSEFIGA

Assay [2] addresses T1, EGFR T790M kinase (Homo sapiens, UniProt P00533, T790M).
T1 construct: purchased invitrogen PV4803
In words: In vitro enzymatic activity assay (Z'-LYTE), EGFR T790M. It counts as biochemical. The note with it: Z'-LYTE FRET peptide assay; read-out: EGFRT790M kinase activity (IC50).
Text: as §1

The target of assay [3] is EGFRL858R (Homo sapiens, UniProt P00533, L858R). In words: In vitro enzymatic activity assay (Z'-LYTE), EGFR L858R. Format: biochemical. The note with it: Z'-LYTE FRET peptide assay; read-out: EGFRL858R kinase activity (IC50).
EGFRL858R, sequence (P00533 25-1210 L858R): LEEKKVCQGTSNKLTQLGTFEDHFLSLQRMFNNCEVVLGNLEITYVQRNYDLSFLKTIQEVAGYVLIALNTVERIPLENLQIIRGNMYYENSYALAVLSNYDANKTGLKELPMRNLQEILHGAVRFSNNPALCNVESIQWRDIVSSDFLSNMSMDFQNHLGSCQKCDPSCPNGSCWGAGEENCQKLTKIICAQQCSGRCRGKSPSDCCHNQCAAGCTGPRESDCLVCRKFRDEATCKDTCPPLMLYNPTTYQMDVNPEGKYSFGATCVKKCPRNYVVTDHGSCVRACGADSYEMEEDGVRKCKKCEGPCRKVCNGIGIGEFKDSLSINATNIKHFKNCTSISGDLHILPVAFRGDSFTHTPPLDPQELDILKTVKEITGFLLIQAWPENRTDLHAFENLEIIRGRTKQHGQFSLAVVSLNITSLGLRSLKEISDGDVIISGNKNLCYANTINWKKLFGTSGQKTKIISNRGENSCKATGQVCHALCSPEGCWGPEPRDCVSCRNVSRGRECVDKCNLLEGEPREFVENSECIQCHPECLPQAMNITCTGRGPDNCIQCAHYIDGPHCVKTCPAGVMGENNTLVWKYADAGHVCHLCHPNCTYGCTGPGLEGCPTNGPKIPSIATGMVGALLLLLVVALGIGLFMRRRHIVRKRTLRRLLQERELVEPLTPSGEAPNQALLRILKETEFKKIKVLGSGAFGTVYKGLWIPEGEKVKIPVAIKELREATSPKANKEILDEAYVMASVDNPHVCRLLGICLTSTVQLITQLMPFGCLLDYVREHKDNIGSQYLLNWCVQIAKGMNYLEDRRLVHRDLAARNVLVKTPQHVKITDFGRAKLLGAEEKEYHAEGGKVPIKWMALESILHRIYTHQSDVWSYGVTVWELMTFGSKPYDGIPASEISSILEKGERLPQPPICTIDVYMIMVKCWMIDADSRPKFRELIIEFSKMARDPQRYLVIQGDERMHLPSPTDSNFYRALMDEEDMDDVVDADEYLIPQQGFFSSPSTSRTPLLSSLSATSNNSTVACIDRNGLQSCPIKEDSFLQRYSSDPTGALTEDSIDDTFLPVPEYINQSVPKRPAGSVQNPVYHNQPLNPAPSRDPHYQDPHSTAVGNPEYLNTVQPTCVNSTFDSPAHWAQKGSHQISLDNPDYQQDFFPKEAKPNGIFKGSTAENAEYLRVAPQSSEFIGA
Text: as §1

Assay [4] addresses EGFRL861Q (Homo sapiens, UniProt P00533, L861Q). Description: In vitro enzymatic activity assay (Z'-LYTE), EGFR L861Q. Format: biochemical. The note with it: Z'-LYTE FRET peptide assay; read-out: EGFRL861Q kinase activity (IC50).
Text: as §1

For assay [5], the target named is EGFRL858R + T790M (Homo sapiens, UniProt P00533, L858R/T790M). Description: In vitro enzymatic activity assay (Z'-LYTE), EGFR L858R + T790M. It counts as biochemical. The note with it: Z'-LYTE FRET peptide assay; read-out: EGFRL858R + T790M kinase activity (IC50).
EGFRL858R + T790M, sequence (P00533 25-1210 T790M/L858R): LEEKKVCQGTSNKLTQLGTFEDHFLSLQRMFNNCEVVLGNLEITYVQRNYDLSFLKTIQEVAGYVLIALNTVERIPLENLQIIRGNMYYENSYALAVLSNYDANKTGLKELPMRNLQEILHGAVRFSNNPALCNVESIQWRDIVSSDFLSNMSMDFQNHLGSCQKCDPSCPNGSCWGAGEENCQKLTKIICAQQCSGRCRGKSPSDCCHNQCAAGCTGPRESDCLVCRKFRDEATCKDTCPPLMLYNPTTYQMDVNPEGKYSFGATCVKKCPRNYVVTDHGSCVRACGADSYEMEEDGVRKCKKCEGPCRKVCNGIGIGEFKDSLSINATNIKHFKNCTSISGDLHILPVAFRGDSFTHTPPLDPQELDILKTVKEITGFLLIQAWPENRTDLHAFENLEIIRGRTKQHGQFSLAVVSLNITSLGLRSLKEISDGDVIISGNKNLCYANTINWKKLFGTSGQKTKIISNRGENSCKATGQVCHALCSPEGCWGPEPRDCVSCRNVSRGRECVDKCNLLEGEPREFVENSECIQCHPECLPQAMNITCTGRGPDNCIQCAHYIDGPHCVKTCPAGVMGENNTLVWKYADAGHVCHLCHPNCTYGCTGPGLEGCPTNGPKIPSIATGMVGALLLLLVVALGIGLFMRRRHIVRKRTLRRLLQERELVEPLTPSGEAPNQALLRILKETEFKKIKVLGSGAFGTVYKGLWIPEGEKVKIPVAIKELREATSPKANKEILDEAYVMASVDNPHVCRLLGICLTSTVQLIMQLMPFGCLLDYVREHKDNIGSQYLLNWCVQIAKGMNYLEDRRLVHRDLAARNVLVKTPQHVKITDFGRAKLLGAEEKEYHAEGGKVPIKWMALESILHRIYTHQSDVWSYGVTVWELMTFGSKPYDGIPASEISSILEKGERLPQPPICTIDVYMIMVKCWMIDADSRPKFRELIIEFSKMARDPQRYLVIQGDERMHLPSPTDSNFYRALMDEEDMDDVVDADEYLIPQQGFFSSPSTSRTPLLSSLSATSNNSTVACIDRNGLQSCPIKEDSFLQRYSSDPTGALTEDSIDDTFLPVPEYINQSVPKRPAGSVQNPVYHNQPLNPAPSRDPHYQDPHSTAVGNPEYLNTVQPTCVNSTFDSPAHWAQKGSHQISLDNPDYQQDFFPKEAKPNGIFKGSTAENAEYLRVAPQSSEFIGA
Text: as §1

Assay [6] concerns H1975 (lung cancer cells, EGFR L858R&T790M). In words: Cell proliferation by MTT, H1975. It counts as cell-based. The following applies: Homo sapiens, NCI-H1975, read-out: H1975 50% inhibitory concentration (IC50), 72 h.

T1 sequence (P00533 25-1210 T790M): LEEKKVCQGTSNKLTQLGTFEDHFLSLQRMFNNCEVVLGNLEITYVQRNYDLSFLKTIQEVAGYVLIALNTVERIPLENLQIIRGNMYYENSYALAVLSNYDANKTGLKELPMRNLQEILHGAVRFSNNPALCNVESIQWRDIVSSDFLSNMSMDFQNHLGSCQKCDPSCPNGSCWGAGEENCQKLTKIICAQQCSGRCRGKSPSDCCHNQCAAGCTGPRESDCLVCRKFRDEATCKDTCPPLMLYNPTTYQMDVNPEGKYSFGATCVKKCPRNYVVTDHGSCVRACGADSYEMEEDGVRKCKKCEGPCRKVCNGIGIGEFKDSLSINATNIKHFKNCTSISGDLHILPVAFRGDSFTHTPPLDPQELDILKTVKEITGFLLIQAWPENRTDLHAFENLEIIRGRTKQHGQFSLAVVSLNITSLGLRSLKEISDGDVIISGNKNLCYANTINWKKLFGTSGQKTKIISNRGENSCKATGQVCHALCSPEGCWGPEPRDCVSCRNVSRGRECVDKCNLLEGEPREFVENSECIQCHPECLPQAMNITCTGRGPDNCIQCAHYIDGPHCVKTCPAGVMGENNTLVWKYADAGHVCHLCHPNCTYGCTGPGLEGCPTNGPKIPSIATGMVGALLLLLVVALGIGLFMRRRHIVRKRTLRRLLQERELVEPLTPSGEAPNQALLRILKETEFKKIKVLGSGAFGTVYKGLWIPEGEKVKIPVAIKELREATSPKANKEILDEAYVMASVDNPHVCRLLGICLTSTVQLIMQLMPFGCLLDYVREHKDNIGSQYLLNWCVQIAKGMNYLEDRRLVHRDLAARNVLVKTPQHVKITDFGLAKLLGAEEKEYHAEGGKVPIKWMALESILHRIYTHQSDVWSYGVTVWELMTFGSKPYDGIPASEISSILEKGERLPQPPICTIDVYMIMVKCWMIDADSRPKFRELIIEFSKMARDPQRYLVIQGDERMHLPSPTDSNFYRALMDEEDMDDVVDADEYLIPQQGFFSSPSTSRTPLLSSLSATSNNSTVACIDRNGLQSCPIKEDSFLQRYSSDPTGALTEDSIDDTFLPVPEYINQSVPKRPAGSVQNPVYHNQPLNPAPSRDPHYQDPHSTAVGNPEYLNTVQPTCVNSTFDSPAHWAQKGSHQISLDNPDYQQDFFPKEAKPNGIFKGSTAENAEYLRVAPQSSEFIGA

For the molecule `C=CC(=O)Nc1cccc(N2C(=O)N(C)Cc3cnc(Nc4ccc(N5CC[C@@H](N(C)C)C5)cc4OC)nc32)c1` [C-EGF15, (R)—N-(3-(7-(4-(3-(dimethylamino)pyrrolidin-1-yl)-2-methoxyphenylamino)-3-methyl-2-oxo-3,4-dihydropyrimido[4,5-d]pyrimidin-1(2H)-yl)phenyl)acrylamide], the IC50 in assay [1] was 10 to 100 nM; in assay [2], 10 to 100 nM; in assay [3] it was no more than 10 nM; in assay [4], no more than 10 nM; in assay [5] it was no more than 10 nM; in assay [6], 449 nM.
With `C=CC(=O)Nc1cccc(N2C(=O)N(C)Cc3cnc(Nc4ccc(N5CC[C@H](N(C)C)C5)cc4OC)nc32)c1` [C-EGF16, (S)—N-(3-(7-(4-(3-(dimethylamino)pyrrolidin-1-yl)-2-methoxyphenylamino)-3-methyl-2-oxo-3,4-dihydropyrimido[4,5-d]pyrimidin-1(2H)-yl)phenyl)acrylamide], the IC50 in assay [1] is no more than 10 nM; in assay [2], 10 to 100 nM; in assay [3], no more than 10 nM; in assay [4] it was no more than 10 nM; in assay [5], no more than 10 nM; in assay [6], 380 nM.
As for `C=CC(=O)Nc1cccc(N2C(=O)N(C)Cc3cnc(Nc4ccc(N5CCN(C(C)=O)CC5)cc4OC)nc32)c1` [C-EGF20, N-(3-(7-(4-(4-acetylpiperazin-1-yl)-2-methoxyphenylamino)-3-methyl-2-oxo-3,4-dihydropyrimido[4,5-d]pyrimidin-1(2H)-yl)phenyl)acrylamide], the IC50 in assay [1] is no more than 10 nM; in assay [2] it was no more than 10 nM; in assay [3], no more than 10 nM; in assay [4], no more than 10 nM; in assay [5] it was no more than 10 nM; in assay [6], 143 nM.
Take `C=CC(=O)Nc1cccc(N2C(=O)N(c3ccccc3)Cc3cnc(Nc4ccc(N5CCN(C)CC5)cc4OC)nc32)c1` [C-EGF27, N-(3-(7-(2-methoxy-4-(4-methylpiperazin-1-yl)phenylamino)-2-oxo-3-phenyl-3,4-dihydropyrimido[4,5-d]pyrimidin-1(2H)-yl)phenyl)acrylamide]: the IC50 in assay [1], in assay [2], in assay [3], in assay [4] and in assay [5] was no more than 10 nM throughout.
As for `C=CC(=O)Nc1cccc(N2C(=O)N(Cc3ccccc3)Cc3cnc(Nc4ccc(N5CCN(C)CC5)cc4OC)nc32)c1` [C-EGF29, N-(3-(3-benzyl-7-(2-methoxy-4-(4-methylpiperazin-1-yl)phenylamino)-2-oxo-3,4-dihydropyrimido[4,5-d]pyrimidin-1(2H)-yl)phenyl)acrylamide], the IC50 in assay [1], in assay [2], in assay [3], in assay [4] and in assay [5] was no more than 10 nM in each case.
As for `C=CC(=O)Nc1cccc(N2C(=O)N(c3ccc(-c4ccccc4)cc3)Cc3cnc(Nc4ccc(N5CCN(C)CC5)cc4OC)nc32)c1` [C-EGF30, N-(3-(3-(biphenyl-4-yl)-7-(2-methoxy-4-(4-methylpiperazin-1-yl)phenylamino)-2-oxo-3,4-dihydropyrimido[4,5-d]pyrimidin-1(2H)-yl)phenyl)acrylamide], the IC50 in assay [1], in assay [2], in assay [3], in assay [4] and in assay [5] was no more than 10 nM throughout.
For `C=CC(=O)Nc1cccc(N2C(=O)N(c3ccc(Oc4ccccc4)cc3)Cc3cnc(Nc4ccc(N5CCN(C)CC5)cc4OC)nc32)c1` [C-EGF31, N-(3-(7-(2-methoxy-4-(4-methylpiperazin-1-yl)phenylamino)-2-oxo-3-(4-phenoxyphenyl)-3,4-dihydropyrimido[4,5-d]pyrimidin-1(2H)-yl)phenyl)acrylamide], the IC50 in assay [1], in assay [2], in assay [3], in assay [4] and in assay [5] was no more than 10 nM in each case.
As to `C=CC(=O)Nc1cccc(N2C(=O)N(c3ccc(OCc4ccccc4)cc3)Cc3cnc(Nc4ccc(N5CCN(C)CC5)cc4OC)nc32)c1` [C-EGF32, N-(3-(3-(4-(benzyloxy)phenyl)-7-(2-methoxy-4-(4-methylpiperazin-1-yl)phenylamino)-2-oxo-3,4-dihydropyrimido[4,5-d]pyrimidin-1(2H)-yl)phenyl)acrylamide], the IC50 in assay [1], in assay [2], in assay [3], in assay [4] and in assay [5] was no more than 10 nM each time.
For the molecule `C=CC(=O)Nc1cccc(N2C(=O)N(c3cccc(Cl)c3)Cc3cnc(Nc4ccc(N5CCN(C)CC5)cc4OC)nc32)c1` [C-EGF35, N-(3-(3-(3-chlorophenyl)-7-(2-methoxy-4-(4-methylpiperazin-1-yl)phenylamino)-2-oxo-3,4-dihydropyrimido[4,5-d]pyrimidin-1(2H)-yl)phenyl)acrylamide], the IC50 in assay [1], in assay [2], in assay [3], in assay [4] and in assay [5] was no more than 10 nM throughout.
For `C=CC(=O)Nc1cccc(N2C(=O)N(c3cccc(C#N)c3)Cc3cnc(Nc4ccc(N5CCN(C)CC5)cc4OC)nc32)c1` [C-EGF36, N-(3-(3-(3-cyanophenyl)-7-(2-methoxy-4-(4-methylpiperazin-1-yl)phenylamino)-2-oxo-3,4-dihydropyrimido[4,5-d]pyrimidin-1(2H)-yl)phenyl)acrylamide], the IC50 in assay [1], in assay [2], in assay [3], in assay [4] and in assay [5] was no more than 10 nM throughout.
As to `C=CC(=O)Nc1cccc(N2C(=O)N(c3cccc([N+](=O)[O-])c3)Cc3cnc(Nc4ccc(N5CCN(C)CC5)cc4OC)nc32)c1` [C-EGF37, N-(3-(7-(2-methoxy-4-(4-methylpiperazin-1-yl)phenylamino)-3-(3-nitrophenyl)-2-oxo-3,4-dihydropyrimido[4,5-d]pyrimidin-1(2H)-yl)phenyl)acrylamide], the IC50 in assay [1] was no more than 10 nM; in assay [2], 10 to 100 nM; in assay [3] it was no more than 10 nM; in assay [4] it was no more than 10 nM; in assay [5] it was 10 to 100 nM.
With `C=CC(=O)Nc1cccc(N2C(=O)N(c3ccc(F)c(Cl)c3)Cc3cnc(Nc4ccc(N5CCN(C)CC5)cc4OC)nc32)c1` [C-EGF38, N-(3-(3-(3-chloro-4-fluorophenyl)-7-(2-methoxy-4-(4-methylpiperazin-1-yl)phenylamino)-2-oxo-3,4-dihydropyrimido[4,5-d]pyrimidin-1(2H)-yl)phenyl)acrylamide], the IC50 in assay [1], in assay [2], in assay [3], in assay [4] and in assay [5] was no more than 10 nM throughout.
`C=CC(=O)Nc1cccc(N2C(=O)N(c3ccccc3C)Cc3cnc(Nc4ccc(N5CCN(C)CC5)cc4OC)nc32)c1` [C-EGF39, N-(3-(7-(2-methoxy-4-(4-methylpiperazin-1-yl)phenylamino)-2-oxo-3-o-tolyl-3,4-dihydropyrimido[4,5-d]pyrimidin-1(2H)-yl)phenyl)acrylamide]: the IC50 in assay [1], in assay [2], in assay [3], in assay [4] and in assay [5] was no more than 10 nM in each case.
Take `C=CS(=O)(=O)Nc1cccc(N2C(=O)N(C)Cc3cnc(Nc4ccc(N5CCN(C)CC5)cc4OC)nc32)c1` [C-EGF40, N-(3-(7-(2-methoxy-4-(4-methylpiperazin-1-yl)phenylamino)-3-methyl-2-oxo-3,4-dihydropyrimido[4,5-d]pyrimidin-1(2H)-yl)phenyl)ethenesulfonamide]: the IC50 is no more than 10 nM in assay [1]; 10 to 100 nM in assay [2]; no more than 10 nM in assay [3]; no more than 10 nM in assay [4]; 10 to 100 nM in assay [5].
For the molecule `C=CC(=O)Nc1ccc(F)c(N2C(=O)N(Cc3ccccc3)Cc3cnc(Nc4ccc(N5CCN(C)CC5)cc4OC)nc32)c1` [C-EGF41, N-(3-(3-benzyl-7-(2-methoxy-4-(4-methylpiperazin-1-yl)phenylamino)-2-oxo-3,4-dihydropyrimido[4,5-d]pyrimidin-1(2H)-yl)-4-fluorophenyl)acrylamide], the IC50 in assay [1], in assay [2], in assay [3], in assay [4] and in assay [5] was no more than 10 nM each time.
